Source: patent publication US20080274892A1, “Novel Haloalkylsulfonanilide Derivative, Herbicide, and Method of Use Thereof” (priority 2005, published 2008)

How the values were obtained:
barnyard glass = test: Test Example 2: herbicidal efficacy on rice paddy weeds post-emergence; format: in vivo, Echinochloa crus-galli; details: post-emergence, one leaf stage, 21 days after treatment
Summary of the method: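 Efficacy on paddy weeds was scored on a 0 to 4 growth-inhibition scale: 4 for 90%-100%, 3 for 70%-89%, 2 for 40%-69%, 1 for 1%-39% and 0 for 0%. Barnyard glass was grown in clay loam in 75 cm^2 pots under 5 cm of water in a hot house. It was compared with untreated pots 21 days after treatment.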

false pimpernel [1] = test: as above; format: in vivo, Lindernia pyxidaria; details: post-emergence, one leaf stage, 21 days after treatment
[2] = tested on: transplanted paddy rice plant and Bulrush; test: Test Example 5: selectivity between transplanted paddy rice plant and weeds; format: in vivo; details: (highest dosage with no phytotoxicity to paddy rice)/(lowest dosage with effective level 4 on Bulrush); rice 3000-100 g/ha, Bulrush 300-10 g/ha; 21 days
Summary of the method: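 Scoring ran 21 days after treatment in a hothouse on a 0–4 scale (4 = 90–100%, 3 = 70–89%, 2 = 40–69%, 1 = 1–39%, 0 = none) relative to untreated plants. Post-emergence bulrush received 10, 30, 100 and 300 g/ha active ingredient. Transplanted rice received 100, 300, 1000 and 3000 g/ha to assess crop injury.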

bulrush [3] = test: Test Example 2: herbicidal efficacy on rice paddy weeds post-emergence; format: in vivo, Scirpus juncoides; details: post-emergence, one leaf stage, 21 days after treatment
bulrush [4] = test: Test Example 4: low dosage test for rice paddy weeds; format: in vivo, Scirpus juncoides; details: 300 g/ha as an active ingredient; plants treated at the one leaf stage; 21 days after treatment; vs untreated control
Summary of the method: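 Compound applied as a formulation at 300 g/ha to one-leaf bulrush grown in flooded clay loam (5 cm water) in a hot house. After 21 days, growth inhibition versus untreated plants rated on a 0–4 scale, with 4 meaning 90–100%.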

false pimpernel [5] = test: Test Example 1: herbicidal efficacy on rice paddy weeds pre-emergence; format: in vivo, Lindernia pyxidaria; details: 21 days
bulrush [6] = test: as above; format: in vivo, Scirpus juncoides; details: 21 days
[7] = tested on: paddy rice plant (cultivar: Nihonbare); test: Test Example 3: phytotoxicity test for transplanted paddy rice plant; format: in vivo; details: transplanted rice, 21 days after treatment
Summary of the method: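 Clay loam soil was placed in a 75 cm^2 plastic pot and flooded to a water depth of 5 cm. Two Nihonbare paddy rice plants at the two-leaf stage were transplanted 1 cm deep and grown in a hot house. After treatment, pots stayed in the hot house for 21 days, and phytotoxicity was then graded against an untreated control.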

[8] = dosage 1000 g/ha, treated 5 days after transplantation

Structure (SMILES)	Burnyard grass post (herbicidal efficacy grade) (barnyard glass; dosage 1000 g/ha)	False pimpernel post (herbicidal efficacy grade) (false pimpernel [1]; dosage 1000 g/ha)	Selective Index [2]	melting point	Bulrush post (herbicidal efficacy grade) (bulrush [3]; dosage 1000 g/ha)	Herbicide effect to Bulrush (bulrush [4])	False pimpernel pre (herbicidal efficacy grade) (false pimpernel [5]; dosage 1000 g/ha)	Bulrush pre (herbicidal efficacy grade) (bulrush [6]; dosage 1000 g/ha)	Phytotoxicity to paddy rice [7, 8]	False pimpernel post (herbicidal efficacy grade) (false pimpernel [1]; dosage 300 g/ha)	Bulrush post (herbicidal efficacy grade) (bulrush [3]; dosage 300 g/ha)	False pimpernel pre (herbicidal efficacy grade) (false pimpernel [5]; dosage 300 g/ha)	Bulrush pre (herbicidal efficacy grade) (bulrush [6]; dosage 300 g/ha)	Phytotoxicity to paddy rice ([7]; dosage 300 g/ha)	Burnyard grass post (herbicidal efficacy grade) (barnyard glass; dosage 300 g/ha)
CCC1COC(=O)N1Cc1ccccc1N(C(=O)OCC(C)C)S(=O)(=O)C(F)(F)F (stereo not drawn) [Compound No. 1-6, 4-ethyl-3-{2-[N-(isobutoxycarbonyl)-N-(trifluoromethanesulfonyl)amino]benzyl}-2-oxazolidinone]	4 (90%-100% of herbicidal efficacy or phytotoxicity)	4 (90%-100% of herbicidal efficacy or phytotoxicity)	3	69.3 to 71.7 °C	4 (90%-100% of herbicidal efficacy or phytotoxicity)	3 (70%-89% of herbicidal efficacy or phytotoxicity)	4 (90%-100% of herbicidal efficacy or phytotoxicity)	4 (90%-100% of herbicidal efficacy or phytotoxicity)	1 (1%-39% of herbicidal efficacy or phytotoxicity)	–	–	–	–	–	–
CCC1COC(=O)N1Cc1ccccc1NS(=O)(=O)C(F)(F)F (stereo not drawn) [Compound No. 1-5, 4-ethyl-3-[2-(trifluoromethanesulfonylamino)benzyl]-2-oxazolidinone]	4 (90%-100% of herbicidal efficacy or phytotoxicity)	4 (90%-100% of herbicidal efficacy or phytotoxicity)	≧10	81.4 to 83.6 °C	4 (90%-100% of herbicidal efficacy or phytotoxicity)	4 (90%-100% of herbicidal efficacy or phytotoxicity)	4 (90%-100% of herbicidal efficacy or phytotoxicity)	4 (90%-100% of herbicidal efficacy or phytotoxicity)	2 (40%-69% of herbicidal efficacy or phytotoxicity)	–	–	–	–	–	–
CC1(C)OC(=O)N(Cc2ccccc2NS(=O)(=O)C(F)(F)F)C1O (stereo not drawn) [Compound No. 1-194, 4-hydroxy-5,5-dimethyl-3-[2-(trifluoromethanesulfonylamino)benzyl]oxazolidin-2-one]	–	–	–	88 to 92 °C	–	–	–	–	–	–	–	–	–	–	–
Cc1cn(Cc2ccccc2N(C(=O)OCC(C)C)S(=O)(=O)C(F)(F)F)c(=O)o1 [Compound No. 1-208, 3-{2-[N-(isobutoxycarbonyl)-N-(trifluoromethanesulfonyl)amino]benzyl}-5-methyl-4-oxazolin-2-one]	–	–	–	60.3 to 68.6 °C	–	–	–	–	–	1 (1%-39% of herbicidal efficacy or phytotoxicity)	4 (90%-100% of herbicidal efficacy or phytotoxicity)	4 (90%-100% of herbicidal efficacy or phytotoxicity)	4 (90%-100% of herbicidal efficacy or phytotoxicity)	0 (0% of herbicidal efficacy or phytotoxicity)	–
Cc1cn(Cc2ccccc2NS(=O)(=O)C(F)(F)F)c(=O)o1 [Compound No. 1-207, 5-methyl-3-[2-(trifluoromethanesulfonylamino)benzyl]-4-oxazolin-2-one]	–	–	–	120.2 to 121.2 °C	–	–	–	–	–	1 (1%-39% of herbicidal efficacy or phytotoxicity)	4 (90%-100% of herbicidal efficacy or phytotoxicity)	4 (90%-100% of herbicidal efficacy or phytotoxicity)	4 (90%-100% of herbicidal efficacy or phytotoxicity)	1 (1%-39% of herbicidal efficacy or phytotoxicity)	0 (0% of herbicidal efficacy or phytotoxicity)
CCC1CN(Cc2ccccc2NS(=O)(=O)C(F)(F)F)C(=O)O1 (stereo not drawn) [Compound No. 1-23, 5-ethyl-3-[2-(trifluoromethanesulfonylamino)benzyl]-2-oxazolidinone]	4 (90%-100% of herbicidal efficacy or phytotoxicity)	4 (90%-100% of herbicidal efficacy or phytotoxicity)	10	–	4 (90%-100% of herbicidal efficacy or phytotoxicity)	4 (90%-100% of herbicidal efficacy or phytotoxicity)	4 (90%-100% of herbicidal efficacy or phytotoxicity)	4 (90%-100% of herbicidal efficacy or phytotoxicity)	1 (1%-39% of herbicidal efficacy or phytotoxicity)	–	–	–	–	–	–
CC(C)COC(=O)N(c1ccccc1CN1CC(C(C)C)OC1=O)S(=O)(=O)C(F)(F)F (stereo not drawn) [1-32]	4 (90%-100% of herbicidal efficacy or phytotoxicity)	4 (90%-100% of herbicidal efficacy or phytotoxicity)	10	–	4 (90%-100% of herbicidal efficacy or phytotoxicity)	3 (70%-89% of herbicidal efficacy or phytotoxicity)	4 (90%-100% of herbicidal efficacy or phytotoxicity)	4 (90%-100% of herbicidal efficacy or phytotoxicity)	0 (0% of herbicidal efficacy or phytotoxicity)	–	–	–	–	–	–
CC[C@@H]1CN(Cc2ccccc2N(C(=O)OCC(C)C)S(=O)(=O)C(F)(F)F)C(=O)O1 [1-58]	4 (90%-100% of herbicidal efficacy or phytotoxicity)	4 (90%-100% of herbicidal efficacy or phytotoxicity)	≧30	–	4 (90%-100% of herbicidal efficacy or phytotoxicity)	4 (90%-100% of herbicidal efficacy or phytotoxicity)	4 (90%-100% of herbicidal efficacy or phytotoxicity)	4 (90%-100% of herbicidal efficacy or phytotoxicity)	1 (1%-39% of herbicidal efficacy or phytotoxicity)	–	–	–	–	–	–
CC(C)OCCOC(=O)N(c1ccccc1CN1CC(C)(C)OC1=O)S(=O)(=O)C(F)(F)F [1-78]	4 (90%-100% of herbicidal efficacy or phytotoxicity)	4 (90%-100% of herbicidal efficacy or phytotoxicity)	10	–	4 (90%-100% of herbicidal efficacy or phytotoxicity)	4 (90%-100% of herbicidal efficacy or phytotoxicity)	4 (90%-100% of herbicidal efficacy or phytotoxicity)	4 (90%-100% of herbicidal efficacy or phytotoxicity)	1 (1%-39% of herbicidal efficacy or phytotoxicity)	–	–	–	–	–	–
CCCOC(=O)N(c1ccccc1CN1CC(C)(C)OC1=O)S(=O)(=O)C(F)(F)F [1-75]	4 (90%-100% of herbicidal efficacy or phytotoxicity)	4 (90%-100% of herbicidal efficacy or phytotoxicity)	≧30	–	4 (90%-100% of herbicidal efficacy or phytotoxicity)	4 (90%-100% of herbicidal efficacy or phytotoxicity)	4 (90%-100% of herbicidal efficacy or phytotoxicity)	4 (90%-100% of herbicidal efficacy or phytotoxicity)	1 (1%-39% of herbicidal efficacy or phytotoxicity)	–	–	–	–	–	–
